Source: PMC10460054, “Multiplex Quantitative Analysis of 9 Compounds of Scutellaria baicalensis Georgi in the Plasma of Respiratory Syncytial Virus-Infected Mice Based on HPLC-MS/MS and Pharmacodynamic Effect Correlation Analysis” (Molecules, 2023)
In brackets after ≈: the same amount, converted by molar mass.

Key:
[1] = HPLC-MS/MS quantification of 9 compounds in plasma of RSV-infected mice after Scutellaria baicalensis Georgi administration; assay type: in vivo, BALB/c mice; design: drug-containing plasma content: unit not given here; details: for time of highest plasma concentration, first peak / time of highest plasma concentration, second peak: RSV-infected mice after Scutellaria baicalensis Georgi administration, double peak phenomenon; for drug-containing plasma content: RSV-infected mice, mean ± SD, n = 6
Procedure: The study employed a Vanquish high-performance liquid chromatograph for chromatographic separation, with a HALO C18 column (2.1 × 100 mm, 2.7 μm) as the chromatographic column.
Mass spectrometry was performed using a quadrupole-electrostatic field orbitrap desktop mass spectrometer equipped with an electrospray ion source (ESI). The ESI parameters were set as follows: the pyrolysis voltage was 3.0 kV, the auxiliary gas flow rate was 10 mL/min, the ion transport tube temperature was 350 °C, the auxiliary gas temperature was 350 °C, and the sheath gas flow rate was 45 L/min. Quantitative analysis was performed using the selective ion detection (SIM) mode (Table S1).
Male BALB/c mice, aged 2 weeks and weighing 10–12 g, were chosen for this study. They were acclimatized for 2 days and then randomly assigned to one of five groups: blank (C), model (M), positive control ribavirin (Y1), positive control lianhua qingwen granules (Y2), and Scutellaria baicalensis Georgi administration (H1-H12). Each group consisted of six mice, and their weights were recorded. The mice were pre-administered for 2 days, and on the third day, RSV virus (TCID50 = 10^−6) was inoculated through intranasal infection at a volume of 35 μL per mouse. The blank group was inoculated with normal saline of the same volume. After the inoculation of the RSV virus, the blank and model groups were given distilled water by gavage, while the drug-administered groups were given an aqueous extract of Scutellaria baicalensis Georgi (10 µL/g) once a day for 3 days. The mice were observed daily for their mental status, hair color, diet, and body weight. […] It was then centrifuged at 3000 r/min for 10 min, and the upper layer of plasma was stored at −80℃. Lung tissues were weighed, the lung index was calculated, and the lung tissues were stored in the refrigerator at −80 °C for freezing.
The plasma sample (200 μL) was processed in a 5 mL tube. Subsequently, 10 μL of 5% formic acid and 20 μL of 2 mol/L hydrochloric acid were added, followed by vortexing for 1 min with 10 μL of internal standard solution (100 ng/mL tinidazole). The extraction was completed by adding 2000 μL of acetonitrile solvent and vortexing for 2 min. The mixture was then centrifuged at 12,000 r/min at 4 °C for 10 min, and the supernatant solution was collected in a new centrifuge tube. The supernatant solution was dried by nitrogen at room temperature before being redissolved in 50 μL of 70% acetonitrile solution containing 0.1% formic acid. After vortexing for 1 min, the solution was centrifuged at 12,000 r/min at 4 °C for 10 min, and the resulting supernatant was injected for analysis. The injection volume was 3 μL.
The drug-containing plasma at different time points was subjected to sample treatment. The HPLC-MS/MS analysis method was used to quantitatively detect the 9 compounds in the ion detection (SIM) mode. According to the relative peak area value = index peak area/internal standard peak area, the corresponding concentration value was calculated by substituting the standard curve of each component.

[2] = Stability of 9 compounds in mouse plasma under storage conditions; assay type: in vitro ADME; details: n = 6; for Stability 3-Freeze-Thaw Cycles RE: 3 times repeated freeze-thaw at −80 °C; for Stability Short-Term RE: 12 h at 4 °C; for Stability Long-Term RE: −20 °C for 20 days
[3] = tested on: RSV; details: cited from earlier work
[4] = tested on: respiratory syncytial virus (RSV); test: Lung index and lung index repair rate in RSV-infected mice; assay type: in vivo; details: positive control groups
Procedure: (§1) Male BALB/c mice, aged 2 weeks and weighing 10–12 g, were chosen for this study. They were acclimatized for 2 days and then randomly assigned to one of five groups: blank (C), model (M), positive control ribavirin (Y1), positive control lianhua qingwen granules (Y2), and Scutellaria baicalensis Georgi administration (H1-H12). Each group consisted of six mice, and their weights were recorded. The mice were pre-administered for 2 days, and on the third day, RSV virus (TCID50 = 10^−6) was inoculated through intranasal infection at a volume of 35 μL per mouse. The blank group was inoculated with normal saline of the same volume. After the inoculation of the RSV virus, the blank and model groups were given distilled water by gavage, while the drug-administered groups were given an aqueous extract of Scutellaria baicalensis Georgi (10 µL/g) once a day for 3 days. The mice were observed daily for their mental status, hair color, diet, and body weight. […] Lung tissues were weighed, the lung index was calculated, and the lung tissues were stored in the refrigerator at −80 °C for freezing.
Based on the recorded body weight and lung tissue weight of mice in the blank, model, positive control, and administration groups, the lung index and lung index repair rate were calculated for each group. […]

[5] = tested on: respiratory syncytial virus (RSV); test: Lung tissue viral load (RSV-F real-time PCR) and inhibition rate in RSV-infected mice; assay type: in vivo; details: positive control groups
Procedure: as §1, with “volume.” for “volume. After the inoculation of the RSV virus, the blank and model groups were given distilled water by gavage, while the drug-administered groups were given an aqueous extract of Scutellaria baicalensis Georgi (10 µL/g) once a day for 3 days. The mice were observed daily for their mental status, hair color, diet, and body weight.”
The F protein is a RSV-specific protein, so it can be used as a PCR gene indicator to indicate the viral load of lung tissue. […] After quantification, the RNA was reverse transcribed into cDNA, and the SYBR Green Master Mix reagent was used as the reaction system. […] The viral load inhibition rate was calculated using the 2^−ΔΔCt formula, and a graph depicting the change in lung tissue viral load over time was plotted, with time as the abscissa and lung tissue viral load as the ordinate. […]

[6] = 0.083 h after last gavage of Scutellaria baicalensis Georgi extract
[7] = 0.167 h after last gavage of Scutellaria baicalensis Georgi extract
[8] = 0.25 h after last gavage of Scutellaria baicalensis Georgi extract
[9] = 0.5 h after last gavage of Scutellaria baicalensis Georgi extract
[10] = 1 h after last gavage of Scutellaria baicalensis Georgi extract
[11] = 2 h after last gavage of Scutellaria baicalensis Georgi extract
[12] = 4 h after last gavage of Scutellaria baicalensis Georgi extract
[13] = 6 h after last gavage of Scutellaria baicalensis Georgi extract
[14] = 8 h after last gavage of Scutellaria baicalensis Georgi extract
[15] = 10 h after last gavage of Scutellaria baicalensis Georgi extract
[16] = 12 h after last gavage of Scutellaria baicalensis Georgi extract
[17] = 24 h after last gavage of Scutellaria baicalensis Georgi extract
[18] = high QC (20,000 or 10,000 ng/mL)

drug-containing plasma content [1, 6]	drug-containing plasma content [1, 7]	drug-containing plasma content [1, 8]	drug-containing plasma content [1, 9]	drug-containing plasma content [1, 10]	drug-containing plasma content [1, 11]	drug-containing plasma content [1, 12]	drug-containing plasma content [1, 13]	drug-containing plasma content [1, 14]	drug-containing plasma content [1, 15]	drug-containing plasma content [1, 16]	drug-containing plasma content [1, 17]	Stability 3-Freeze-Thaw Cycles RE [2, 18]	Stability 3-Freeze-Thaw Cycles RE ([2]; low QC (12.5 or 25.6 ng/mL))	Stability 3-Freeze-Thaw Cycles RE ([2]; medium QC (320 or 160 ng/mL))	Stability Short-Term RE [2, 18]	Stability Short-Term RE ([2]; low QC (12.5 or 25.6 ng/mL))	Stability Short-Term RE ([2]; medium QC (320 or 160 ng/mL))	Stability Long-Term RE [2, 18]	Stability Long-Term RE ([2]; low QC (12.5 or 25.6 ng/mL))	SMILES	also measured
344.59± 1.64	981.37± 13.72	471.39± 1.78	222.21± 6.76	181.04± 4.74	10.35± 1.79	71.39± 17.8	2664.55± 129.18	97.31± 2.71	14.65± 8.42	3.41± 5.28	0	12.89%	−11.16%	9.82%	8.46%	−9.77%	11.75%	8.46%	−13.33%	COc1c(O)cc(O)c2c(=O)cc(-c3ccccc3)oc12 [Wogonin]	time of highest plasma concentration, first peak [1]: 0.167 h; time of highest plasma concentration, second peak [1]: 6 h; Stability Long-Term RE ([2]; medium QC (320 or 160 ng/mL)): 11.75%; IC50 against RSV [3]: 7.4 µg/mL (≈ 26 µM)
462.93± 10.74	603.78± 13.98	143.83± 6.73	315.26± 12.78	138.74± 3.62	315.26± 12.78	412.32± 18.42	1008.71± 54.19	286.84± 8.27	160.51± 5.17	29.40± 0.71	0	−0.56%	6.23%	3.08%	−0.23%	7.34%	1.89%	0.55%	7.73%	COc1c(OC2OC(C(=O)O)C(O)C(O)C2O)cc2oc(-c3ccccc3)cc(=O)c2c1O [Oroxylin A 7-O-beta-D-glucuronide]	time of highest plasma concentration, first peak [1]: 0.167 h; time of highest plasma concentration, second peak [1]: 6 h; Stability Long-Term RE ([2]; medium QC (320 or 160 ng/mL)): 2.21%
																				NC(=O)c1ncn([C@@H]2O[C@H](CO)[C@@H](O)[C@H]2O)n1 [Y1, ribavirin]	Repair Rate (lung index) [4]: 58.33%; Lung Index ([4]; mean ± SD, n = 6): 0.85 ± 0.08 %; Inhibitory Rates (viral load) [5]: 61.26%; Viral Load ([5]; mean ± SD, n = 6): 2.27 ± 0.37 ×10^5 Copies/Ml

SMILES	drug-containing plasma content [1, 6]	drug-containing plasma content [1, 7]	drug-containing plasma content [1, 8]	drug-containing plasma content [1, 9]	drug-containing plasma content [1, 10]	drug-containing plasma content [1, 11]	drug-containing plasma content [1, 12]	drug-containing plasma content [1, 13]	drug-containing plasma content [1, 14]	drug-containing plasma content [1, 15]	drug-containing plasma content [1, 16]	drug-containing plasma content [1, 17]	Stability 3-Freeze-Thaw Cycles RE [2, 18]	Stability 3-Freeze-Thaw Cycles RE ([2]; low QC (12.5 or 25.6 ng/mL))	Stability 3-Freeze-Thaw Cycles RE ([2]; medium QC (320 or 160 ng/mL))	Stability Short-Term RE [2, 18]	Stability Short-Term RE ([2]; low QC (12.5 or 25.6 ng/mL))	Stability Short-Term RE ([2]; medium QC (320 or 160 ng/mL))	Stability Long-Term RE [2, 18]	Stability Long-Term RE ([2]; low QC (12.5 or 25.6 ng/mL))	also measured
O=c1cc(-c2ccccc2)oc2cc(O)cc(O)c12 [Chrysin]	0	0	0	10.37± 2.12	15.38± 4.94	21.43± 4.86	12.37± 2.12	60.64± 2.86	0	0	0	0	−2.47%	−6.42%	−5.15%	−2.74%	−5.59%	−10.49%	−3.86%	−4.52%	Stability Long-Term RE ([2]; medium QC (320 or 160 ng/mL)): −9.37%
